Like-named read-outs stand apart in the source and are kept apart here.
Tested on: Methanococcus maripaludis
Test: Inhibition of methane production by Methanococcus maripaludis culture (pressure drop after 24 h)
Assay type: cell-based
Details: for Fold increase of Compound X combined with bromoform as compared to Compound X alone: bromoform 0.12 μM; for inhibition at 25 µM: Compound X 25 μM alone; for inhibition at 100 µM: Compound X 100 μM alone
Experimental: For this experiment, bromoform was prepped at 100 mM by adding 8.75 μl bromoform to 991 μl DMSO. This was diluted 10× to generate a 10 mM solution and further diluted to generate 0.12 mM stock solutions. Compound X stock solutions were prepared in DMSO (except for tannic acid, which was diluted in deionized water), to achieve the desired stock solutions required for testing. The experiment was set up by adding 5 ml of M141 medium (https://www.dsmz.de/microorganisms/medium/pdf/DSMZ_Medium141.pdf) to a screw cap Hungate tube followed by the addition of 5 μl Compound X and/or 5 μl bromoform or 5/10 μl DMSO as follows: • Tube 1: DMSO (10 μl) • Tube 2: Bromoform (5 μl, 0.120 mM) (120 nM final)+5 μl DMSO • Tube 3: Compound X (5 μl stock solution)+5 μl DMSO • Tube 4: Bromoform (5 μl 0.120 mM) (120 nM final)+Compound X (5 μl stock solution)
The concentration of Bromoform was fixed at 0.12 μM.
After the addition of the test substances, 500 μl of an overnight M. maripaludis culture was added to each reaction tube. Each tube was gassed with 80% H2/20% CO2 to 240 kPa and incubated at 37° C. for 24 h.
After the 24 h incubation the pressure inside the tube was measured using a manometer. Given that 5 moles of H2/CO2 are consumed to generate 1 mole of CH4 the drop in pressure observed was used to calculate the amount of methane by the control and test reactions from which a percent inhibition was calculated.
Table 1 below summarises the range of concentrations and the fold increase in inhibition of Compound X when tested with bromoform relative to the level of inhibition for Compound X when tested alone.

[1] = Compound X 25 μM + bromoform 0.12 μM, 24 h
[2] = Methanococcus maripaludis, 24 h, read-out: Methane inhibition of Compound X as a sole compound (%)
[3] = Compound X 500 μM + bromoform 0.12 μM, 24 h
[4] = Compound X 1 mM + bromoform 0.12 μM, 24 h
[5] = Compound X 100 μM + bromoform 0.12 μM, 24 h

O=[N+]([O-])OCCCO [3-Nitrooxypropanol]
Methane inhibition in combination with Bromoform (%) (Compound X 0.78 μM-1.56 μM (range tested) + bromoform 0.12 μM, 24 h): 91.3%
Fold increase of Compound X combined with bromoform as compared to Compound X alone (Compound X 0.78 μM-1.56 μM (range tested)): 91.3 fold
inhibition (Methanococcus maripaludis, Compound X 0.78 μM-1.56 μM (range tested) alone, 24 h, read-out: Methane inhibition of Compound X as a sole compound (%)): 1%

CC(C)=CCc1c(O)cc(O)c2c1O[C@H](c1ccc(O)cc1)CC2=O [8-prenylnaringenin]
Methane inhibition in combination with Bromoform (%) (Compound X 12.5 μM + bromoform 0.12 μM, 24 h): 97.2%
Fold increase of Compound X combined with bromoform as compared to Compound X alone (Compound X 12.5 μM): 1.27 fold
inhibition at 12.5 µM (Methanococcus maripaludis, Compound X 12.5 μM alone, 24 h, read-out: Methane inhibition of Compound X as a sole compound (%)): 76.4%

CC(C)=CCc1cc2c(cc1O)O[C@H](c1ccc(O)cc1)CC2=O [Bavachin]
Methane inhibition in combination with Bromoform (%) [1]: 57.4%
Fold increase of Compound X combined with bromoform as compared to Compound X alone (Compound X 25 μM): 57.4 fold
inhibition at 25 µM [2]: 1%

Cc1ccc(C(C)C)cc1O [Carvacrol]
Methane inhibition in combination with Bromoform (%) [3]: 79.6%
Fold increase of Compound X combined with bromoform as compared to Compound X alone (Compound X 500 μM): 1.14 fold
inhibition at 500 µM [2]: 69.6%

O=CC=Cc1ccccc1 [Cinnamaldehyde]
Methane inhibition in combination with Bromoform (%) [4]: 91.7%
Fold increase of Compound X combined with bromoform as compared to Compound X alone (Compound X 1 mM): 91.7 fold
inhibition at 1000 µM (Methanococcus maripaludis, Compound X 1 mM alone, 24 h, read-out: Methane inhibition of Compound X as a sole compound (%)): 1%

CC(C)=CCCC(C)=CC=O [Citral]
Methane inhibition in combination with Bromoform (%) [3]: 96.7%
Fold increase of Compound X combined with bromoform as compared to Compound X alone (Compound X 500 μM): 7.29 fold
inhibition at 500 µM (Methanococcus maripaludis, Compound X 500 μM alone, 24 h, read-out: Methane inhibition of Compound X as a sole compound (%)): 13.3%

CC(C)=CCC/C(C)=C/Cc1cc(-c2coc3cc(O)ccc3c2=O)ccc1O [Corylifol A]
Methane inhibition in combination with Bromoform (%) (Compound X 3.125 μM + bromoform 0.12 μM, 24 h): 96.1%
Methane inhibition of Compound X as a sole compound (%) (Compound X 3.125 μM alone, 24 h): 1%
Fold increase of Compound X combined with bromoform as compared to Compound X alone (Compound X 3.125 μM): 96.1 fold

O=C(O)C(Br)Br [Dibromoacetic acid]
Methane inhibition in combination with Bromoform (%) (Compound X 200 μM + bromoform 0.12 μM, 24 h): 88.1%
Fold increase of Compound X combined with bromoform as compared to Compound X alone (Compound X 200 μM): 88.1 fold
inhibition at 200 µM [2]: 1%

ClC(Br)Br [Dibromochloromethane]
Methane inhibition in combination with Bromoform (%) (Compound X 0.195 μM + bromoform 0.12 μM, 24 h): 92.2%
Fold increase of Compound X combined with bromoform as compared to Compound X alone (Compound X 0.195 μM): 92.2 fold
inhibition at 0.195 µM [2]: 1%

CSSC [Dimethyl disulfide]
Methane inhibition in combination with Bromoform (%) [4]: 43.5%
Fold increase of Compound X combined with bromoform as compared to Compound X alone (Compound X 1 mM): 43.5 fold
inhibition at 1000 µM [2]: 1%

CC(C)=CCC[C@](C)(O[C@@H]1O[C@H](CO[C@@H]2OC[C@H](O)[C@H](O)[C@H]2O)[C@@H](O)[C@H](O)[C@H]1O)[C@H]1CC[C@]2(C)[C@@H]1[C@H](O)C[C@@H]1[C@@]3(C)CC[C@H](O[C@@H]4O[C@H](CO)[C@@H](O)[C@H](O)[C@H]4O[C@@H]4O[C@H](CO)[C@@H](O)[C@H](O)[C@H]4O)C(C)(C)[C@@H]3CC[C@]12C [Ginsenoside Rb2]
Methane inhibition in combination with Bromoform (%) (Compound X 20 μM + bromoform 0.12 μM, 24 h): 66.9%
Methane inhibition of Compound X as a sole compound (%) (Compound X 20 μM alone, 24 h): 44.7%
Fold increase of Compound X combined with bromoform as compared to Compound X alone (Compound X 20 μM): 1.42 fold

CC(C)=CCc1c(O)ccc(C(=O)/C=C/c2ccc(O)cc2)c1O [Isobavachalcone]
Methane inhibition in combination with Bromoform (%) (Compound X 3.125 μM-6.25 μM (range tested) + bromoform 0.12 μM, 24 h): 93.4%
Fold increase of Compound X combined with bromoform as compared to Compound X alone (Compound X 3.125 μM-6.25 μM (range tested)): 1.12 fold
inhibition (Methanococcus maripaludis, Compound X 3.125 μM-6.25 μM (range tested) alone, 24 h, read-out: Methane inhibition of Compound X as a sole compound (%)): 83.4%

CC(C)=CCc1c(-c2ccc(O)cc2O)oc2c3c(cc(O)c2c1=O)OC(C)(C)C=C3 [Morusin]
Methane inhibition in combination with Bromoform (%) (Compound X 1.25 μM-10 μM (range tested) + bromoform 0.12 μM, 24 h): 96.7%
Fold increase of Compound X combined with bromoform as compared to Compound X alone (Compound X 1.25 μM-10 μM (range tested)): 2.16 fold

O=c1c(O)c(-c2ccc(O)c(O)c2)oc2cc(O)cc(O)c12 [Quercetin]
Methane inhibition in combination with Bromoform (%) (Compound X 50 μM-100 μM (range tested) + bromoform 0.12 μM, 24 h): 91.2%
Fold increase of Compound X combined with bromoform as compared to Compound X alone (Compound X 50 μM-100 μM (range tested)): 1.21 fold

C[C@H]1O[C@@H](O[C@H]2CC[C@@]3(C)[C@@H](CC[C@]4(C)[C@@H]3C=CC3=C5CC(C)(C)CC[C@]5(CO)[C@H](O)C[C@]34C)[C@]2(C)CO)[C@H](O)[C@@H](O[C@@H]2O[C@H](CO)[C@@H](O)[C@H](O)[C@H]2O)[C@H]1O [Saikosaponin b2]
Methane inhibition in combination with Bromoform (%) (Compound X 10 μM + bromoform 0.12 μM, 24 h): 55.6%
Methane inhibition of Compound X as a sole compound (%) (Compound X 10 μM alone, 24 h): 1%
Fold increase of Compound X combined with bromoform as compared to Compound X alone (Compound X 10 μM): 55.6 fold

C=C[C@](C)(O)CC[C@@H]1[C@@]2(C)CCCC(C)(C)[C@@H]2CC[C@@]1(C)O [Sclareol]
Methane inhibition in combination with Bromoform (%) [1]: 61.2%
Fold increase of Compound X combined with bromoform as compared to Compound X alone (Compound X 25 μM): 56 fold
inhibition at 25 µM [2]: 1.1%

O=C(OC[C@H]1O[C@@H](OC(=O)c2cc(O)c(O)c(OC(=O)c3cc(O)c(O)c(O)c3)c2)[C@H](OC(=O)c2cc(O)c(O)c(OC(=O)c3cc(O)c(O)c(O)c3)c2)[C@@H](OC(=O)c2cc(O)c(O)c(OC(=O)c3cc(O)c(O)c(O)c3)c2)[C@@H]1OC(=O)c1cc(O)c(O)c(OC(=O)c2cc(O)c(O)c(O)c2)c1)c1cc(O)c(O)c(OC(=O)c2cc(O)c(O)c(O)c2)c1 [Tannic acid]
Methane inhibition in combination with Bromoform (%) [5]: 56.1%
Fold increase of Compound X combined with bromoform as compared to Compound X alone (Compound X 100 μM): 1.16 fold
inhibition at 100 µM [2]: 48.3%

C[C@H]1[C@H](C)CC[C@]2(C(=O)O)CC[C@]3(C)C(=CC[C@@H]4[C@@]5(C)CC[C@H](O)C(C)(C)[C@@H]5CC[C@]43C)[C@H]12 [Ursolic Acid]
Methane inhibition in combination with Bromoform (%) [5]: 85.2%
Fold increase of Compound X combined with bromoform as compared to Compound X alone (Compound X 100 μM): 85.2 fold
inhibition at 100 µM [2]: 1%

COc1cc(O)c(CC=C(C)C)c(O)c1C(=O)/C=C/c1ccc(O)cc1 [Xanthohumol]
Methane inhibition in combination with Bromoform (%) (Compound X 6.25 μM-12.5 μM (range tested) + bromoform 0.12 μM, 24 h): 95.1%
Fold increase of Compound X combined with bromoform as compared to Compound X alone (Compound X 6.25 μM-12.5 μM (range tested)): 1.5 fold
inhibition (Methanococcus maripaludis, Compound X 6.25 μM-12.5 μM (range tested) alone, 24 h, read-out: Methane inhibition of Compound X as a sole compound (%)): 63.6%

Bavachinin
Methane inhibition in combination with Bromoform (%) (Compound X 12.5 μM-100 μM (range tested) + bromoform 0.12 μM, 24 h): 97.2%
Methane inhibition of Compound X as a sole compound (%) (Compound X 12.5 μM-100 μM (range tested) alone, 24 h): 43%
Fold increase of Compound X combined with bromoform as compared to Compound X alone (Compound X 12.5 μM-100 μM (range tested)): 2.26 fold
